From ChEMBL document CHEMBL4270648, “Molecular design, synthesis and biological evaluation of cage compound-based inhibitors of hepatitis C virus p7 ion channels” (Eur J Med Chem, 2018)

Assays:
[1] = Inhibition of p7 ion channel in BVDV VK-1 infected in calf heart cells assessed as reduction in viral growth by colorimetric method; format: cell-based, Bovine viral diarrhea virus 1; conditions: Bovine viral diarrhea virus isolates and strains
[2] = Cytotoxicity against calf heart cells assessed as reduction in cell viability by colorimetric method; format: cell-based, Bos taurus; conditions: cattle
[3] = Selectivity index, ratio of CC50 for calf heart cells to IC50 for BVDV VK-1 infected in calf heart cells; format: toxicity, cell-based; conditions: cattle, read-out: Ratio CC50/IC50

Row | Compound | IC50 [1] [µM] | CC50 [2] [µM] | selectivity ratio [3]
1 | NCC12CC3CC(C1)CC(CC(=O)O)(C3)C2 | 382 | > 385 | > 1
2 | CSc1ncn(C2(c3ccccc3O)C3CC4CC(C3)CC2C4)n1 (centres undefined) | 22.9 | 119 | 5.2
3 | c1ccc2[nH]cc(C34CC5CC(CC(C5)C3)C4)cc[nH]c2c1 | 20.3 | 128 | 6.3
4 | O=C(C[n+]1cccc2ccccc21)C12CC3CC(CC(C3)C1)C2 | 15.2 | 133 | 8.7
5 | CC1(c2ccccc2)CCN(CCC23CC4CC(CC(C4)C2)C3)CC1 | 2.82 | 90.7 | 32.1
6 | C=C(COc1ccccc1C(=O)OCC)C12CC3CC(CC(C3)C1)C2 | 4.57 | 35.8 | 7.8
7 | CC(=C(C#N)C#N)C12CC3CC(CC(C3)C1)C2 | 25.9 | 106 | 4.1
8 | Oc1noc2c1C1CC3CC(CC2C3)C1 | 5.94 | > 487 | > 82
9 | Oc1ccccc1C1(n2cncn2)C2CC3CC(C2)CC1C3 (centres undefined) | 5.99 | > 339 | > 56.5
10 | CC1=NC(C)(C23CC4CC(CC(C4)C2)C3)CO1 (centres undefined) | 33.4 | 168 | 5
11 | C1C2CC3CC1CC(C2)c1nc2c(nc13)C1CC3CC(C1)CC2C3 | 102 | > 312 | > 3.1
12 | O=S1(=O)OC23CC4CC(CC(C4)C2)C[C@H]3[C@@H]1CN1CCOCC1 | 62.1 | > 293 | > 4.7
13 | CC12CC3(N)CC(CC(=O)O)(C1)CC(CC(=O)O)(C2)C3 | 118 | > 315 | > 2.7
14 | CC(O)(CNC(=O)C(F)(F)F)C12CC3CC(CC(C3)C1)C2 (centres undefined) | 75.4 | 259 | 3.4
15 | Cc1cccc[n+]1CCC12CC3CC(CC(C3)C1)C2 | 9.3 | 297 | 32
16 | c1ccc2c[n+](CCC34CC5CC(CC(C5)C3)C4)ccc2c1 | 56.6 | 83 | 1.5
17 | CCN(CC)C[C@H](Cl)[C@H](O)C12CC3CC(CC(C3)C1)C2 (relative stereo) | 13.4 | 274 | 20.5
18 | CN(C)C1=NC2(c3ccccc3O1)C1CC3CC(C1)CC2C3 (centres undefined) | 70.9 | 72.1 | 1
19 | N#CC(C#N)=C(/C=C/N1CCOCC1)C12CC3CC(CC(C3)C1)C2 | 86.4 | > 309 | > 3.6
20 | O/N=C1\C(=N\O)C2CC3CC(CC1C3)C2 | 3.38 | 480 | 142
21 | CCC1CC2CC3CC(C2)CC1(O)C3 (centres undefined) | 4.24 | 403 | 95.2
22 | OC(CN1CCCc2ccccc21)C12CC3CC(CC(C3)C1)C2 (centres undefined) | 213 | > 321 | > 1.5
23 | O=C(NCc1ccccc1)C1C(=O)C2CC3CC(C2)CC1C3 (centres undefined) | 66.6 | > 336 | > 5.1
24 | O=c1[nH]cc(C23CC4CC(CC(C4)C2)C3)cc1C12CC3CC(CC(C3)C1)C2 | 2.56 | > 275 | > 107
25 | C[C@@H]1N[C@H]1C12CC3CC(CC(C3)C1)C2 | 76.7 | 105 | 1.4
26 | c1ccc2nc3c(nc2c1)C1CC2CC(C1)CC3C2 | 7.87 | > 400 | > 50.8
27 | O=S1(=O)OC23CC4CC(CC(C4)C2)C[C@H]3[C@@H]1CN1CCCCC1 | 163 | > 295 | > 1.8

Row | Compound | IC50 [1] [µM] | CC50 [2] [µM] | selectivity ratio [3]
28 | O=C(O)C(Br)C12CC3CC(CC(O)(C3)C1)C2 (centres undefined) | 193 | > 346 | > 1.8
29 | CC1(c2ccccc2)CCCN(CCC23CC4CC(CC(C4)C2)C3)C1 (centres undefined) | 3.02 | 86.7 | 28.7
30 | C1CN[C@H]2C3CC4CC(CC(C4)[C@H]2N1)C3 | 1.69 | > 358 | > 211
31 | COP(=O)(OC)[C@@H](C(=O)C12CC3CC(CC(C3)C1)C2)[C@H](C[N+](=O)[O-])c1ccccc1 (relative stereo) | 10.6 | > 230 | > 21.7
32 | CCN(CC)C[C@H]1O[C@@H]1C12CC3CC(CC(C3)C1)C2 (relative stereo) | 39.5 | 90.4 | 2.3
33 | CC(=O)NC(C)C12CC3CC(CC(C(=O)O)(C3)C1)C2 (centres undefined) | 28.9 | > 377 | > 13.1
34 | Cc1cccc[n+]1CC(=O)C12CC3CC(CC(C3)C1)C2 | 78.8 | > 285 | > 3.6
35 | O=C(C[n+]1ccccc1)C12CC3CC(CC(C3)C1)C2 | 75.9 | > 297 | > 3.9
36 | O=C(O)CC12CC3(O)CC(CC(=O)O)(C1)CC(C(=O)O)(C3)C2 | 282 | > 320 | > 1.1
37 | O=C(O)CC12CC3CC(O)(C1)CC(CC(=O)O)(C3)C2 | 116 | > 373 | > 3.2
38 | c1ccc2c(c1)Oc1ncnn1C21C2CC3CC(C2)CC1C3 (centres undefined) | 6.23 | > 341 | > 54.7
39 | O/N=C1/CC2CC3CC(C2)CC1C3 | 7.21 | 148 | 20.6
40 | O=C1CCC(C23CC4CC(CC(C4)C2)C3)=NN1c1ccccc1 | < 0.52 | 235 | > 450
41 | O=c1cc[nH]cc1C12CC3CC(CC(C3)C1)C2 | 12.9 | > 436 | > 33.9
42 | CN(C)c1cc[n+](C23CC4CC(CC(C4)C2)C3)cc1 | 24.4 | 199 | 8.1
43 | O=c1ccn(C23CC4CC(CC(C4)C2)C3)cc1 | 35.3 | 158 | 4.5
44 | O=C([C@@H]([C@H](C[N+](=O)[O-])c1ccccc1)S(=O)(=O)c1ccccc1)C12CC3CC(CC(C3)C1)C2 (relative stereo) | 1.89 | > 215 | > 114
45 | O=c1[nH][nH]c2c1C1CC3CC(CC2C3)C1 | 39.7 | > 485 | > 12.2
46 | c1cc(OC23CC4CC(CC(C4)C2)C3)ccn1 | 37.4 | 290 | 7.8
47 | C[C@H](O)[C@H](N)C12CC3CC(CC(C3)C1)C2 | 103 | > 407 | > 4
48 | O=S1(=O)OC23CC4CC(CC(C4)C2)C[C@H]3[C@@H]1CNCc1ccccc1 | 56.5 | 96 | 1.7
49 | O=c1ccc(C23CC4CC(CC(C4)C2)C3)n[nH]1 | 20 | > 434 | > 21.8
50 | CC1=CCCN(CC(O)C23CC4CC(CC(C4)C2)C3)C1 (centres undefined) | 25.2 | 190 | 7.5
51 | O=C1/C(=N/O)C2CC3CC(CC1C3)C2 | 177 | > 518 | > 2.9
52 | C1CN(C[C@H]2O[C@@H]2C23CC4CC(CC(C4)C2)C3)CCO1 (relative stereo) | 164 | 271 | 1.7
53 | CC(=O)NCC12CC3CC(C1)CC(CC(=O)O)(C3)C2 | 181 | > 377 | > 2.1
